Measurements published in patent US12077523B2, “N-(isopropyl-triazolyl)pyridinyl)-heteroaryl-carboxamide derivatives and use thereof” (HK INNO.N CORPORATION, priority 2018, dated 2024).

These molecules were tested against T1, ASK-1 enzyme (Homo sapiens, UniProt Q99683) (assay: Inhibitory ability against ASK-1 enzyme activity (ADP-Glo Kinase Assay)). Details: 250 μM ATP, MBP substrate, 15 ng ASK-1 enzyme, 30° C. 40 minutes.
T1 construct: purchased Signal Chem M13-11G-10
T1 sequence (Q99683 649-946 limits assumed): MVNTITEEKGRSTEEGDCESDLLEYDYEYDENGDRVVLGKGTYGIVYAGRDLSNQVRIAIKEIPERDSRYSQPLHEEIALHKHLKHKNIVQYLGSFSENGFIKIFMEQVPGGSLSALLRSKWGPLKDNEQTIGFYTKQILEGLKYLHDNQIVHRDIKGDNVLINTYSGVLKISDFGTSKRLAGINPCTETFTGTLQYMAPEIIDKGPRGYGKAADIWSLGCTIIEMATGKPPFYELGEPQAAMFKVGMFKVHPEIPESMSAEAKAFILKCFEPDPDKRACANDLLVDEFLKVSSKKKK
Format: biochemical
Experimental: Experimental Example 1: Assay of Inhibitory Ability Against ASK-1 Enzyme Activity (ADP-Glo™ Kinase Assay)
In order to evaluate the inhibitory ability of the compounds of Examples 1 to 24 against ASK-1 enzyme activity, the following experiment was carried out using ADP-Glo™ (Promega, Cat. No. V9101). Each of the compounds was prepared into a solution at concentrations of 0.32 nM, 1.6 nM, 8 nM, 40 nM, 200 nM, 1,000 nM by adding a kinase buffer solution (40 mM Tris, 20 mM MgCl2, 0.1 mg/mL bovine serum albumin in H2O). Subsequently, 250 μM of ATP (Promega, Cat. No. V915A) and 0.5 μg/μL of MBP substrate (Signal Chem, Cat. No. 42-51N) were added thereto, and the mixture was reacted at 30° C. for 40 minutes in the presence of 15 ng of ASK-1 enzyme (Signal Chem, Cat. No. M13-11G-10). Then, the ADP-Glo™ reagent and a kinase detection reagent were sequentially added thereto and reacted for 40 minutes and 10 minutes, respectively. After completion of the reaction, luminescence was measured using a Synergy™ NEO microplate reader (BioTEK, NEOB-1311189).
The inhibitory ability of the compounds of Examples 1 to 24 against ASK-1 enzyme activity was verified by analyzing data from the measured RLU values. Specifically, the inhibitory ability against ASK-1 enzyme activity was assessed by deriving the residual activity percentage of the ASK-1 enzyme in the samples treated with the compounds at the concentration to be tested, while using the RLU value of the sample not treated with the compounds as a 100% control.
For Cc1c[nH]c(C(=O)Nc2cccc(-c3nncn3C(C)C)n2)c1 [Example 1, N-(6-(4-isopropyl-4H-1,2,4-triazol-3-yl)pyridin-2-yl)-4-methyl-1H-pyrrole-2-carboxamide], the IC50 was 9.9 nM. For Cc1cccc(-c2c[nH]c(C(=O)Nc3cccc(-c4nncn4C(C)C)n3)c2)c1 [Example 2, N-(6-(4-isopropyl-4H-1,2,4-triazol-3-yl)pyridin-2-yl)-4-m-tolyl-1H-pyrrole-2-carboxamide], the IC50 was 4 nM. With COCc1c[nH]c(C(=O)Nc2cccc(-c3nncn3C(C)C)n2)c1 [Example 3, N-(6-(4-isopropyl-4H-1,2,4-triazol-3-yl)pyridin-2-yl)-4-(methoxymethyl)-1H-pyrrole-2-carboxamide] the IC50 was 7.7 nM. In the case of CCc1c[nH]c(C(=O)Nc2cccc(-c3nncn3C(C)C)n2)c1 [Example 4, 4-ethyl-N-(6-(4-isopropyl-4H-1,2,4-triazol-3-yl)pyridin-2-yl)-1H-pyrrole-2-carboxamide], the IC50 is reported as 8.3 nM. Work on Cc1ccc(-c2c[nH]c(C(=O)Nc3cccc(-c4nncn4C(C)C)n3)c2)cc1 [Example 5, N-(6-(4-isopropyl-4H-1,2,4-triazol-3-yl)pyridin-2-yl)-4-p-tolyl-1H-pyrrole-2-carboxamide] yielded an IC50 of 6 nM. CC(C)n1cnnc1-c1cccc(NC(=O)c2cc(-c3ccccc3)c[nH]2)n1 [Example 6, N-(6-(4-isopropyl-4H-1,2,4-triazol-3-yl)pyridin-2-yl)-4-phenyl-1H-pyrrole-2-carboxamide] gave an IC50 of 6.5 nM. Molecule CC(C)n1cnnc1-c1cccc(NC(=O)c2ccc[nH]2)n1 [Example 7, N-(6-(4-isopropyl-4H-1,2,4-triazol-3-yl)pyridin-2-yl)-1H-pyrrole-2-carboxamide] has an IC50 of 11.6 nM. In the case of Cc1ccc(C(=O)Nc2cccc(-c3nncn3C(C)C)n2)[nH]1 [Example 8, N-(6-(4-isopropyl-4H-1,2,4-triazol-3-yl)pyridin-2-yl)-5-methyl-1H-pyrrole-2-carboxamide], the IC50 is reported as 34.4 nM. Molecule CC(C)n1cnnc1-c1cccc(NC(=O)c2ccc(-c3ccccc3)[nH]2)n1 [Example 9, N-(6-(4-isopropyl-4H-1,2,4-triazol-3-yl)pyridin-2-yl)-5-phenyl-1H-pyrrole-2-carboxamide] has an IC50 of 5.8 nM. Work on Cc1ccc(-c2ccc(C(=O)Nc3cccc(-c4nncn4C(C)C)n3)[nH]2)cc1 [Example 10, N-(6-(4-isopropyl-4H-1,2,4-triazol-3-yl)pyridin-2-yl)-5-p-tolyl-1H-pyrrole-2-carboxamide] yielded an IC50 of 10.2 nM. CCc1ccc(C(=O)Nc2cccc(-c3nncn3C(C)C)n2)[nH]1 [Example 11, 5-ethyl-N-(6-(4-isopropyl-4H-1,2,4-triazol-3-yl)pyridin-2-yl)-1H-pyrrole-2-carboxamide] showed an IC50 of 49.7 nM. Cc1ncc(-c2ccc(C(=O)Nc3cccc(-c4nncn4C(C)C)n3)[nH]2)cn1 [Example 12, N-(6-(4-isopropyl-4H-1,2,4-triazol-3-yl)pyridin-2-yl)-5-(2-methylpyrimidine-5-yl)-1H-pyrrole-2-carboxamide] showed an IC50 of 9.9 nM. Work on CC(C)n1cnnc1-c1cccc(NC(=O)c2ccc(-c3ccc(S(C)(=O)=O)cc3)[nH]2)n1 [Example 13, N-(6-(4-isopropyl-4H-1,2,4-triazol-3-yl)pyridin-2-yl)-5-(4-(methylsulfonyl)phenyl)-1H-pyrrole-2-carboxamide] yielded an IC50 of 4.4 nM. Cc1cccc(-c2ccc(C(=O)Nc3cccc(-c4nncn4C(C)C)n3)[nH]2)c1 [Example 14, N-(6-(4-isopropyl-4H-1,2,4-triazol-3-yl)pyridin-2-yl)-5-m-tolyl-1H-pyrrole-2-carboxamide] was tested, and the IC50 was 5.8 nM. With Cc1cc(C)cc(-c2ccc(C(=O)Nc3cccc(-c4nncn4C(C)C)n3)[nH]2)c1 [Example 15, 5-(3,5-dimethylphenyl)-N-(6-(4-isopropyl-4H-1,2,4-triazol-3-yl)pyridin-2-yl)-1H-pyrrole-2-carboxamide] the IC50 was 8.5 nM. In the case of CC(C)n1cnnc1-c1cccc(NC(=O)c2ccc(-c3ccc(Cl)cc3)[nH]2)n1 [Example 16, 5-(4-chlorophenyl)-N-(6-(4-isopropyl-4H-1,2,4-triazol-3-yl)pyridin-2-yl)-1H-pyrrole-2-carboxamide], the IC50 is reported as 5.4 nM. CC(C)n1cnnc1-c1cccc(NC(=O)c2ccc(-c3cccs3)[nH]2)n1 [Example 17, N-(6-(4-isopropyl-4H-1,2,4-triazol-3-yl)pyridin-2-yl)-5-(thiophene-2-yl)-1H-pyrrole-2-carboxamide] showed an IC50 of 7.9 nM. With Cc1ccc(-c2ccc(C(=O)Nc3cccc(-c4nncn4C(C)C)n3)[nH]2)cc1C [Example 18, 5-(3,4-dimethylphenyl)-N-(6-(4-isopropyl-4H-1,2,4-triazol-3-yl)pyridin-2-yl)-1H-pyrrole-2-carboxamide] the IC50 was 4.8 nM. Cc1ccc(-c2ccc(C(=O)Nc3cccc(-c4nncn4C(C)C)n3)[nH]2)cc1F [Example 19, 5-(3-fluoro-4-methylphenyl)-N-(6-(4-isopropyl-4H-1,2,4-triazol-3-yl)pyridin-2-yl)-1H-pyrrole-2-carboxamide] gave an IC50 of 5.2 nM. With CC(C)n1cnnc1-c1cccc(NC(=O)c2ccc(-c3ccc(F)c(Cl)c3)[nH]2)n1 [Example 20, 5-(3-chloro-4-fluorophenyl)-N-(6-(4-isopropyl-4H-1,2,4-triazol-3-yl)pyridin-2-yl)-1H-pyrrole-2-carboxamide] the IC50 was 5.3 nM. Work on CSc1ccc(-c2ccc(C(=O)Nc3cccc(-c4nncn4C(C)C)n3)[nH]2)cc1 [Example 21, N-(6-(4-isopropyl-4H-1,2,4-triazol-3-yl)pyridin-2-yl)-5-(4-(methylthio)phenyl)-1H-pyrrole-2-carboxamide] yielded an IC50 of 3.1 nM. With Cc1ccccc1-c1ccc(C(=O)Nc2cccc(-c3nncn3C(C)C)n2)[nH]1 [Example 22, N-(6-(4-isopropyl-4H-1,2,4-triazol-3-yl)pyridin-2-yl)-5-o-tolyl-1H-pyrrole-2-carboxamide] the IC50 was 5.1 nM. In the case of CC(C)n1cnnc1-c1cccc(NC(=O)c2ccc(-c3ccc(F)cc3)[nH]2)n1 [Example 23, 5-(4-fluorophenyl)-N-(6-(4-isopropyl-4H-1,2,4-triazol-3-yl)pyridin-2-yl)-1H-pyrrole-2-carboxamide], the IC50 is reported as 5.9 nM. CCOc1ccc(-c2ccc(C(=O)Nc3cccc(-c4nncn4C(C)C)n3)[nH]2)cc1 [Example 24, 5-(4-ethoxyphenyl)-N-(6-(4-isopropyl-4H-1,2,4-triazol-3-yl)pyridin-2-yl)-1H-pyrrole-2-carboxamide] gave an IC50 of 7.5 nM.
